19 compounds from ChEMBL document CHEMBL1201862, “PubChem BioAssay data set” (2004) can be followed below.

Among the test systems are XF498; DMS-114; DMS-273; HOP-18; T47D; PC-3; Hs-578T; RXF 631; 786-0.
Holding throughout (assay): inhibition of tumour cell growth, NCI panel, 48 h

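Tested at 5 concentrations; 48 h exposure; 96-well plates; endpoints linearly interpolated, else capped at highest concentration. GI50 is the concentration that inhibits growth by half.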 Activity calls are given as the source filed them. Cut-off read from the data, not from the text of the source: active = GI50 up to about 1.1 µM and inactive = higher.

As for `Cc1c2cnccc2c(C)c2c1c1ccccc1n2CCCCCCNCc1ccccc1`, the GI50 with XF498 was 2.29 µM (inactive); in the assay with DMS-114, 1.83 µM (inactive); in the assay on DMS-273, 1.21 µM (inactive); in the assay with HOP-18, 0.547 µM (active).
In the case of `Cc1cnc(/C=N\NC(N)=S)c2cccc(N)c12`, the figures for the GI50 in the assay with T47D, with PC-3 and in the assay with Hs-578T were 0.497 µM (active), 2.27 µM (inactive) and > 100 µM (inactive), respectively.
For the compound `O=C1C(Cl)N(c2ccccc2)C1c1c[nH]c2ccccc12` (stereo not given), the GI50 with XF498 and with DMS-114 was > 100 µM (inactive) throughout.
For the compound `COC(OC)C1OC(CO)C(n2cc(F)c(=O)[nH]c2=O)C1O` (stereo not given), the GI50 with T47D is 25.4 µM (inactive); in the assay with PC-3 it was > 100 µM (inactive); in the assay with Hs-578T it was > 100 µM (inactive).
In the case of `COc1ccc2c(c1)CC1Cc3ccccc3CCN1C2` (stereo not given), the GI50 with T47D is 35.2 µM (inactive); in the assay with PC-3 it was 25.9 µM (inactive); in the assay with Hs-578T it was 41.2 µM (inactive).
On to `COP(=O)(OC)/C(=C/c1cn(C(C)=O)c2ccccc12)NC(C)=O`, for which the figures for the GI50 in the assay with T47D, in the assay with PC-3 and in the assay with Hs-578T were 38.5 µM (inactive), 22.4 µM (inactive) and 35.4 µM (inactive), respectively.
For `COc1nc2ccc(CNc3ccc(C(=O)NC(CCC(=O)O)C(=O)O)cc3)cc2nc1OC` (stereo not given), in that order: > 100 µM (inactive), 44.6 µM (inactive) and > 100 µM (inactive).
As to `C=C(C(=O)C(=O)Oc1ccc(Cl)cc1)C(=O)c1ccc(C)cc1`, the GI50 with XF498 was > 100 µM (inactive); in the assay with DMS-114, 30.9 µM (inactive); in the assay on DMS-273, 39.2 µM (inactive); in the assay with HOP-18, > 100 µM (inactive); in the assay on RXF 631, 46.2 µM (inactive).
For `O=C(O)c1cc2sc(C(=O)O)cc2s1`, the GI50 with XF498, in the assay with DMS-114 and in the assay with DMS-273 was > 100 µM (inactive) in each case.
With `O=c1oc2ccccc2n1P(=O)(n1c(=O)oc2ccccc21)n1c(=O)oc2ccccc21`, the GI50 with XF498, in the assay on DMS-114, with DMS-273 and with RXF 631 was > 100 µM (inactive) throughout.
For `CC(=O)Nc1ccc(OCC(O)CO)cc1` (stereo not given), the GI50 in the assay with XF498 is > 100 µM (inactive); in the assay on DMS-273, > 100 µM (inactive); in the assay with 786-0 it was 25.1 µM (inactive); in the assay with HOP-18, > 100 µM (inactive).
With `CC(=O)OCC1OC(n2c(-c3ccc(C)cc3)cc(-c3ccco3)c(C#N)c2=S)C(OC(C)=O)C(OC(C)=O)C1OC(C)=O` (stereo not given), the results for the GI50 with T47D, in the assay on PC-3 and in the assay with Hs-578T were 20.6 µM (inactive), > 100 µM (inactive) and 27.9 µM (inactive), respectively.
Take `O=[N+]([O-])C(=C/c1ccccc1)/C(=C\c1ccccc1)[N+](=O)[O-]`: the GI50 in the assay with T47D is 23.8 µM (inactive); with PC-3, 19.3 µM (inactive); in the assay on Hs-578T it was 56.2 µM (inactive).
In the case of `COc1cc2c(cc1OC)-c1cc3ccccc3c(=O)n1CC2`, the values for the GI50 with T47D, in the assay with PC-3 and in the assay with Hs-578T were 21.8 µM (inactive), 2.68 µM (inactive) and 11.4 µM (inactive), respectively.
For `c1ccc(/N=C2\SC3=NCCN3\C2=N/c2ccccc2)cc1`, in that order: 9.12 µM (inactive), 13.1 µM (inactive) and 36.9 µM (inactive).
On to `Cc1ccc(S(N)(C(=O)Nc2cccc3ccccc23)[N+](=O)[O-])cc1` (stereo not given), for which the GI50 with T47D was 46.2 µM (inactive); in the assay with PC-3, 50.4 µM (inactive); in the assay on Hs-578T it was > 100 µM (inactive).
On to `COc1cc(Br)c(CC2C3=C(CCN2C(=O)C2CCC2)CC(=O)CC3)cc1O` (stereo not given), for which the GI50 with 786-0 was 26.5 µM (inactive); in the assay with T47D, 26.2 µM (inactive); in the assay with PC-3 it was 30.7 µM (inactive); in the assay with Hs-578T it was 26.1 µM (inactive).
With `O=C(CCN(CCO)CCO)Nc1ccc2c(c1)C(=O)c1ccc(NC(=O)CCN(CCO)CCO)cc1C2=O`, the GI50 with XF498 is 11.9 µM (inactive); in the assay with DMS-114, 5.11 µM (inactive); in the assay on DMS-273, 6.64 µM (inactive); in the assay with 786-0, 4.62 µM (inactive); with HOP-18, 27 µM (inactive).
`NC1(C(=O)O)CCCC1` [CYCLOLEUCINE]: the GI50 is 5.77 µM (inactive) in the assay with XF498, > 625 µM (inactive) with DMS-114, > 625 µM (inactive) in the assay with DMS-273 and > 625 µM (inactive) with HOP-18.
